Results taken from article PMC5045448 (Analytical chemistry, 2016).
Like-named read-outs stand apart in the source and are kept apart here. Marks after values point to notes of the source that are not given here.

Columns and labels:
mAb 3H7A10 = experiment: Indirect competitive ELISA; type: binding, Balb/c mice; conditions: for Cross-reactivity: (IC50 of artemisinin/IC50 of other compound) × 100; for cross reactivities: artemisinin-specific mAb from position 9 hapten; for competitive inhibition: mAb 3H7A10, up to 20,000 ng mL^−1
[1] = tested on: mAbs raised by artelinic acid-BSA conjugate; conditions: cited from earlier work
[2] = tested on: polyclonal antibodies prepared by Song et al.; conditions: cited from earlier work
[3] = tested on: mAbs reported by He et al.; conditions: relative to artemisinin; cited from earlier work
[4] = goat, cited from earlier work
[5] = humans, cited from earlier work
[6] = rats, cited from earlier work
[7] = dogs, cited from earlier work
in vivo = experiment: in vivo; set-up: species or system Sprague-Dawley rats; conditions: Sprague-Dawley, rat, ip, 10 mg/kg
[8] = tested on: mAbs generated by Tanaka et al.; conditions: relative to artemisinin; cited from earlier work

Compound	Cross-reactivity (mAb 3H7A10; mAb 3H7A10) [%]	cross reactivities (mAb 3H7A10)	competitive inhibition (mAb 3H7A10; icELISA)	recognition by polyclonal antibodies [2]	Cross-reactivity [3] [%]	also measured
CO[C@H]1O[C@@H]2O[C@@]3(C)CC[C@H]4[C@H](C)CC[C@@H]([C@H]1C)[C@@]24OO3 [Artemether]	0	almost no cross reactivities	No competitive inhibition	equally well	3	binding by mAbs [1]: approximately the same level
C[C@@H]1CC[C@H]2[C@@H](C)C(=O)O[C@@H]3O[C@@]4(C)CC[C@@H]1[C@]32OO4 [Artemisinin]	100 ± 4.6					absorption and bioavailability ([4]; large amount of unabsorbed artemisinin eliminated in feces): slow absorption and low bioavailability; AUC ([5]; another study): 754 ng·h/mL; Cmax ([5]; another study): 167 ng/mL; AUC ([5]; one study): 2,611 ng mL^−1 h; Cmax ([5]; one study): 623 ng/mL; half-life [5]: ~ 2 h; IC50 (mAb 3H7A10; icELISA, mAb 3H7A10, means of triplicate ± SD, NI = no inhibition observed with up to 20,000 ng mL^−1 of the analytes): 2.60 ±0.12 ^b ng/mL; binding by mAbs [1]: approximately the same level; half-life ([6]; in all these studies): ~ 30 min; AUC0-24h ([6]; intraperitoneal injection, 10 mg/kg): 0.132 µM/h; AUC0-3h ([6]; oral administration, 10 mg/kg): 36.4 ng·h/mL; bioavailability ([7]; oral): bioavailability appeared low; AUC(0-t) (in vivo): 43.7 ng·h/mL; Cmax (in vivo): 29.1 ± 3 ng/mL; Tmax (in vivo): 5 min; half-life (in vivo): 22.8 min
C[C@H]1[C@H](OC(=O)CCC(=O)O)O[C@@H]2O[C@@]3(C)CC[C@H]4[C@H](C)CC[C@@H]1[C@@]24OO3 [Artesunate]	0	almost no cross reactivities	No competitive inhibition	equally well	650	Cross-reactivity [8]: 630%
CCN(CC)CCCC(C)Nc1ccnc2cc(Cl)ccc12.O=P(O)(O)O.O=P(O)(O)O (stereo not drawn) [Chloroquine diphosphate salt]	0					
C[C@H]1[C@@H](O)O[C@@H]2O[C@@]3(C)CC[C@H]4[C@H](C)CC[C@@H]1[C@@]24OO3 [Dihydroartemisinin]	0	almost no cross reactivities	No competitive inhibition	equally well	57	time of peak of the metabolite ([4]; after artemisinin): 12 h; Cross-reactivity [8]: 30%; blood concentrations ([7]; oral artemisinin): < 100 nM
CCCCN(CCCC)CC(O)c1cc(Cl)cc2c1-c1ccc(Cl)cc1/C2=C/c1ccc(Cl)cc1 (stereo not drawn) [Lumefantrine]	0					
COc1cc(NC(C)CCCN)c2ncccc2c1 (stereo not drawn) [Primaquine phosphate]	0					
CCc1nc(N)nc(N)c1-c1ccc(Cl)cc1 [Pyrimethamine]	0					
C=C[C@H]1C[N@@]2CC[C@H]1C[C@H]2[C@H](O)c1ccnc2ccc(OC)cc12 [Quinine]	0					
